Measurements from patent publication US12281108B2, “Pyrrolidinone derivatives as formyl peptide 2 receptor agonists” (BRISTOL-MYERS SQUIBB COMPANY, priority 2018, dated 2025).
Where two headings read alike, the source gives them in different places.

Experiments:
human FPR1 receptors = biological target: T1, human FPR1 receptors (Homo sapiens, UniProt P21462); assay: FPR1 cAMP assay in CHO cells overexpressing human FPR1 (HTRF); assay type: cell-based; settings: forskolin 10 μM, inhibition of cAMP production, read-out: hFPR1 cAMP EC50
T1 sequence (P21462 1-350): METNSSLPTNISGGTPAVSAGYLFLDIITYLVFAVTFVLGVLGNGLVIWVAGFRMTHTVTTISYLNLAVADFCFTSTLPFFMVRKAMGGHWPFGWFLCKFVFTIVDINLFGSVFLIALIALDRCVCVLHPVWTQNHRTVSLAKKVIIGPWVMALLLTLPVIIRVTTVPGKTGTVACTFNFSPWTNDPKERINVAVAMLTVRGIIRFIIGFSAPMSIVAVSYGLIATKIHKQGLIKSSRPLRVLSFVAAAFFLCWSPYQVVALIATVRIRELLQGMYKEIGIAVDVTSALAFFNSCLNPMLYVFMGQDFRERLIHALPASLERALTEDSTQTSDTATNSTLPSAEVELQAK
Excerpt: (§1) N-formyl peptide receptors (FPRs) are a family of chemo attractant receptors that facilitate leukocyte response during inflammation. FPRs belong to the seven-transmembrane G protein-coupled receptor superfamily and are linked to inhibitory G-proteins (Gi). Three family members (FPR1, FPR2 and FPR3) have been identified in humans and are predominantly found in myeloid cells with varied distribution and have also been reported in multiple organs and tissues. After agonist binding, the FPRs activate a multitude of physiological pathways, such as intra cellular signaling transduction, Ca^2+ mobilization and transcription. The family interacts with a diverse set of ligands that includes proteins, polypeptides and fatty acid metabolites which activate both pro-inflammatory and pro-resolution downstream responses. FPR2 and FPR1 Cyclic Adenosine Monophosphate (cAMP) Assays were used to measure the in vitro activity of the compounds disclosed in this application.
FPR2 and FPR1 Cyclic Adenosine Monophosphate (cAMP) Assays. A mixture of forskolin (5 μM final for FPR2 or 10 μM final for FPR1) and IBMX (200 μM final) were added to 384-well Proxiplates (Perkin-Elmer) pre-dotted with test compounds in DMSO (1% final) at final concentrations in the range of 0.020 nM to 100 μM. Chinese Hamster Ovary cells (CHO) overexpressing human FPR1 or human FPR2 receptors were cultured in F-12 (Ham's) medium supplemented with 10% qualified FBS, 250 μg/ml zeocin and 300 μg/ml hygromycin (Life Technologies). […] The level of intracellular cAMP was determined using the HTRF HiRange cAMP assay reagent kit (Cisbio) according to manufacturer's instruction. […] After a 1-h room temperature incubation, time-resolved fluorescence intensity was measured using the Envision (Perkin-Elmer) at 400 nm excitation and dual emission at 590 nm and 665 nm. […] The potency and activity of a compound to inhibit cAMP production was then determined by fitting to a 4-parametric logistic equation from a plot of cAMP level versus compound concentrations.

human FPR2 receptors = biological target: T2, human FPR2 receptors (Homo sapiens, UniProt P25090); assay: FPR2 cAMP assay in CHO cells overexpressing human FPR2 (HTRF); assay type: cell-based
T2 sequence (P25090 1-351): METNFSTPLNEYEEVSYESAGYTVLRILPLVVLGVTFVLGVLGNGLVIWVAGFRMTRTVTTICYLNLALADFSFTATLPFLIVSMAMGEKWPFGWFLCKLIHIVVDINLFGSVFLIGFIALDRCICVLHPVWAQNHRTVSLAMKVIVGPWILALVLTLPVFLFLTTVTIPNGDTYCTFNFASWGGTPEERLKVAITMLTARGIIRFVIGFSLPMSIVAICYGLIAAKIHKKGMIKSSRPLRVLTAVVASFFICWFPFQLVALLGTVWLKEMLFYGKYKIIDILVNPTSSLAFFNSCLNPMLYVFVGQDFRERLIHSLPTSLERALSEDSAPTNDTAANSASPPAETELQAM
Excerpt: as §1
FPR2 and FPR1 Cyclic Adenosine Monophosphate (cAMP) Assays. A mixture of forskolin (5 μM final for FPR2 or 10 μM final for FPR1) and IBMX (200 μM final) were added to 384-well Proxiplates (Perkin-Elmer) pre-dotted with test compounds in DMSO (1% final) at final concentrations in the range of 0.020 nM to 100 μM. Chinese Hamster Ovary cells (CHO) overexpressing human FPR1 or human FPR2 receptors were cultured in F-12 (Ham's) medium supplemented with 10% qualified FBS, 250 μg/ml zeocin and 300 μg/ml hygromycin (Life Technologies). Reactions were initiated by adding 2,000 human FPR2 cells per well or 4,000 human FPR1 cells per well in Dulbecco's PBS (with calcium and magnesium) (Life Technologies) supplemented with 0.1% BSA (Perkin-Elmer). The reaction mixtures were incubated for 30 min at room temperature. The level of intracellular cAMP was determined using the HTRF HiRange cAMP assay reagent kit (Cisbio) according to manufacturer's instruction. Solutions of cryptate conjugated anti-cAMP and d2 flurorophore-labelled cAMP were made in a supplied lysis buffer separately. Upon completion of the reaction, the cells were lysed with equal volume of the d2-cAMP solution and anti-cAMP solution. After a 1-h room temperature incubation, time-resolved fluorescence intensity was measured using the Envision (Perkin-Elmer) at 400 nm excitation and dual emission at 590 nm and 665 nm. A calibration curve was constructed with an external cAMP standard at concentrations ranging from 1 μM to 0.1 pM by plotting the fluorescent intensity ratio from 665 nm emission to the intensity from the 590 nm emission against cAMP concentrations. The potency and activity of a compound to inhibit cAMP production was then determined by fitting to a 4-parametric logistic equation from a plot of cAMP level versus compound concentrations.

[1] = CHO cells overexpressing human FPR2, forskolin 5 μM, inhibition of cAMP production, read-out: hFPR2 cAMP2 EC50
[2] = hFPR2 assay, potency bins, read-out: hFPR2 agonist activity EC50

EC50 (human FPR1 receptors)	EC50 (human FPR2 receptors; [1])	EC50 (human FPR2 receptors; [2])	SMILES
2900 nM	890 nM	–	COc1cc(F)c([C@@H]2CNC(=O)[C@H]2Nc2cc(-c3ccc(C(F)F)cc3)on2)c(F)c1 [Example 22, (3S,4R)-4-(2,6-difluoro-4-methoxyphenyl)-3-({5-[4-(difluoromethyl)phenyl]-1,2-oxazol-3-yl}amino)pyrrolidin-2-one]
160 nM	6.7 nM	–	COc1cc(F)c([C@@H]2CNC(=O)[C@H]2Nc2nnc(-c3ccc(SC(F)(F)F)cc3)o2)c(F)c1 [Example 18, (3S,4R)-4-(2,6-difluoro-4-methoxyphenyl)-3-[(5-{4-[(trifluoromethyl)sulfanyl]phenyl}-1,3,4-oxadiazol-2-yl)amino]pyrrolidin-2-one]
–	–	40 to 150 nM	COc1cc(F)c([C@@H]2CNC(=O)[C@H]2Nc2nnc(-c3ccc(F)cc3)s2)c(F)c1 [Example 32, (3S,4R)-4-(2,6-difluoro-4-methoxyphenyl)-3-{[5-(4-fluorophenyl)-1,3,4-thiadiazol-2-yl]amino}pyrrolidin-2-one]
–	–	≤ 40 nM	COc1cc(F)c([C@@H]2CNC(=O)[C@H]2Nc2nnc(-c3ccc(Cl)cc3)o2)c(F)c1 [Example 3, (3S,4R)-3-{[5-(4-chlorophenyl)-1,3,4-oxadiazol-2-yl]amino}-4-(2,6-difluoro-4-methoxyphenyl)pyrrolidin-2-one]
870 nM	71 nM	–	COc1cc(F)c([C@@H]2CNC(=O)[C@H]2Nc2nnc(-c3ccc(Oc4ccc(C(F)(F)F)nc4)cc3)o2)c(F)c1 [Example 58, (3S,4R)-4-(2,6-difluoro-4-methoxyphenyl)-3-{[5-(4-{[6-(trifluoromethyl)pyridin-3-yl]oxy}phenyl)-1,3,4-oxadiazol-2-yl]amino}pyrrolidin-2-one]
–	–	≤ 40 nM	COc1cc(F)c([C@@H]2CNC(=O)[C@H]2Nc2nnc(C3CC3c3ccc(Cl)cc3F)o2)c(F)c1 (stereo partly drawn) [Example 46, (3S,4R)-3-({5-[2-(4-chloro-2-fluorophenyl)cyclopropyl]-1,3,4-oxadiazol-2-yl}amino)-4-(2,6-difluoro-4-methoxyphenyl)pyrrolidin-2-one]
–	–	40 to 150 nM	COc1cc(F)c([C@@H]2CNC(=O)[C@H]2Nc2nnc(-c3ccc(Oc4cnccn4)cc3)o2)c(F)c1 [Example 49, (3S,4R)-4-(2,6-difluoro-4-methoxyphenyl)-3-({5-[4-(pyrazin-2-yloxy)phenyl]-1,3,4-oxadiazol-2-yl}amino)pyrrolidin-2-one]
–	–	150 to 1000 nM	COc1cc(F)c([C@@H]2CNC(=O)[C@H]2Nc2ncc(-c3ccc(Cl)cc3)o2)c(F)c1 [Example 24, (3S,4R)-3-{[5-(4-chlorophenyl)-1,3-oxazol-2-yl]amino}-4-(2,6-difluoro-4-methoxyphenyl)pyrrolidin-2-one]
–	–	40 to 150 nM	COc1cc(F)c([C@@H]2CNC(=O)[C@H]2Nc2nnc(-c3ccc(Oc4ncccc4C#N)cc3)o2)c(F)c1 [Example 66, 2-[4-(5-{[(3S,4R)-4-(2,6-difluoro-4-methoxyphenyl)-2-oxopyrrolidin-3-yl]amino}-1,3,4-oxadiazol-2-yl)phenoxy]pyridine-3-carbonitrile]
–	–	40 to 150 nM	COc1cc(F)c([C@@H]2CNC(=O)[C@H]2Nc2nnc(-c3ccc(Oc4ccc(F)cn4)cc3)o2)c(F)c1 [Example 65, (3S,4R)-4-(2,6-difluoro-4-methoxyphenyl)-3-[(5-{4-[(5-fluoropyridin-2-yl)oxy]phenyl}-1,3,4-oxadiazol-2-yl)amino]pyrrolidin-2-one]
